Experiments:
APRI and FIB-4 scores = experiment: Study 202 post-hoc APRI and FIB-4 fibrosis index scores; assay type: in vivo, human
Procedure: APRI and FIB-4 scores were calculated. Change in score category from baseline (BL) to Weeks 24 and 48 was assessed in patients with non-missing data. Correlations between changes from BL in APRI and FIB-4 scores, and MCP-1 (CCR2 ligand) and sCD14 (inflammatory biomarker) levels were evaluated.

[1] = Excerpt: Subjects with a history of HIV-2, hepatitis B and/or C, cirrhosis of the liver or any known active or chronic active liver disease were excluded from the study.
Most AEs were mild or moderate (Grade 1 or Grade 2). […] None of the Grade ≥3 AEs (preferred terms) were reported in more than 1 subject.

O=C1Nc2ccc(Cl)cc2[C@@](C#CC2CC2)(C(F)(F)F)O1 [EFV, efavirenz, reference compound]
8: AE Dizziness, n subjects ([1]; human, in vivo, 48 weeks)
94%: Patients in FIB-4 category <1.45 (APRI and FIB-4 scores; Week 48)
4: AE Insomnia, n subjects ([1]; human, in vivo, 48 weeks) | AE Lymphadenopathy, n subjects ([1]; human, in vivo, 48 weeks) | AE leading to discontinuation: Nervous system disorders, n subjects ([1]; human, in vivo, 48 weeks)
4%: Patients in APRI category 0.5-1.5 (APRI and FIB-4 scores; Baseline)
100%: Patients in FIB-4 category <1.45 (APRI and FIB-4 scores; Baseline) | Patients in APRI category <0.5 (APRI and FIB-4 scores; Week 24) | Patients in FIB-4 category <1.45 (APRI and FIB-4 scores; Week 24) | Patients in APRI category <0.5 (APRI and FIB-4 scores; Week 48)
0: Grade 3 or 4 AE: Blood creatine phosphokinase increased, n subjects ([1]; human, in vivo, 48 week) | Grade 3 or 4 AE: Cardiac disorders, n subjects ([1]; human, in vivo, 48 week) | Grade 3 or 4 AE: Palpitations, n subjects ([1]; human, in vivo, 48 week) | Grade 3 or 4 AE: Stress, n subjects ([1]; human, in vivo, 48 week) | AE Headache, n subjects ([1]; human, in vivo, 48 weeks) | AE leading to discontinuation: Aggression, n subjects ([1]; human, in vivo, 48 weeks) | AE leading to discontinuation: General disorders and administration site conditions, n subjects ([1]; human, in vivo, 48 weeks) | AE leading to discontinuation: Malaise, n subjects ([1]; human, in vivo, 48 weeks) | AE leading to discontinuation: Thinking abnormal, n subjects ([1]; human, in vivo, 48 weeks) | Grade 3 or 4 AE: Abdominal pain, n subjects ([1]; human, in vivo, 48 weeks) | Grade 3 or 4 AE: Blindness unilateral, n subjects ([1]; human, in vivo, 48 weeks) | Grade 3 or 4 AE: Corneal infection, n subjects ([1]; human, in vivo, 48 weeks) | Grade 3 or 4 AE: Eye disorders, n subjects ([1]; human, in vivo, 48 weeks) | Grade 3 or 4 AE: Gastrointestinal disorders, n subjects ([1]; human, in vivo, 48 weeks) | Grade 3 or 4 AE: General disorders and administration site conditions, n subjects ([1]; human, in vivo, 48 weeks) | Grade 3 or 4 AE: Infections and infestations, n subjects ([1]; human, in vivo, 48 weeks) | Grade 3 or 4 AE: Pyrexia, n subjects ([1]; human, in vivo, 48 weeks) | SAE: Blindness unilateral, n subjects ([1]; human, in vivo, 48 weeks) | SAE: Corneal infection, n subjects ([1]; human, in vivo, 48 weeks) | SAE: Eye disorders, n subjects ([1]; human, in vivo, 48 weeks) | SAE: Gastroenteritis, n subjects ([1]; human, in vivo, 48 weeks) | SAE: Infections and infestations, n subjects ([1]; human, in vivo, 48 weeks)
5: AE Rash, n subjects ([1]; human, in vivo, 48 weeks)
6%: Patients in FIB-4 category 1.45-3.25 (APRI and FIB-4 scores; Week 48) | Patients with APRI decreased 1 category from baseline (APRI and FIB-4 scores; Week 48)
27: Any AE, n subjects ([1]; human, in vivo, 48 weeks)
5%: Patients with APRI decreased 1 category from baseline (APRI and FIB-4 scores; Week 24)
96%: Patients in APRI category <0.5 (APRI and FIB-4 scores; Baseline, CVC pooled 100/200 mg or EFV)
0 n: Deaths ([1]; EFV (N = 28))
2: AE Upper respiratory tract infection, n subjects ([1]; human, in vivo, 48 weeks) | AE leading to discontinuation: Dizziness, n subjects ([1]; human, in vivo, 48 weeks) | AE leading to discontinuation: Skin and subcutaneous tissue disorders, n subjects ([1]; human, in vivo, 48 weeks)
3: AE Depression, n subjects ([1]; human, in vivo, 48 weeks) | AE Diarrhoea, n subjects ([1]; human, in vivo, 48 weeks) | AE Syphilis, n subjects ([1]; human, in vivo, 48 weeks) | AE leading to discontinuation: Insomnia, n subjects ([1]; human, in vivo, 48 weeks) | AE leading to discontinuation: Psychiatric disorders, n subjects ([1]; human, in vivo, 48 weeks) | Any Grade 3 AE, n subjects ([1]; human, in vivo, 48 weeks)
1: SAE: Suicidal ideation, n subjects ([1]; All CVC (N = 115), EFV (N = 28), through Week 48) | Grade 3 or 4 AE: Suicidal ideation, n subjects ([1]; All CVC (N = 115), EFV (N = 28; Grade 4 event)) | Grade 3 or 4 AE: Depression, n subjects ([1]; human, in vivo, 48 week) | Grade 3 or 4 AE: Ear and labyrinth disorders, n subjects ([1]; human, in vivo, 48 week) | Grade 3 or 4 AE: Investigations, n subjects ([1]; human, in vivo, 48 week) | Grade 3 or 4 AE: Psychiatric disorders, n subjects ([1]; human, in vivo, 48 week) | Grade 3 or 4 AE: Weight decreased, n subjects ([1]; human, in vivo, 48 week) | AE Fatigue, n subjects ([1]; human, in vivo, 48 weeks) | AE Nasopharyngitis, n subjects ([1]; human, in vivo, 48 weeks) | AE leading to discontinuation: Abnormal dreams, n subjects ([1]; human, in vivo, 48 weeks) | AE leading to discontinuation: Anxiety, n subjects ([1]; human, in vivo, 48 weeks) | AE leading to discontinuation: Depression, n subjects ([1]; human, in vivo, 48 weeks) | AE leading to discontinuation: Dermatitis allergic, n subjects ([1]; human, in vivo, 48 weeks) | AE leading to discontinuation: Disturbance in attention, n subjects ([1]; human, in vivo, 48 weeks) | AE leading to discontinuation: Ear and labyrinth disorders, n subjects ([1]; human, in vivo, 48 weeks) | AE leading to discontinuation: Eye disorders, n subjects ([1]; human, in vivo, 48 weeks) | AE leading to discontinuation: Gastrointestinal disorders, n subjects ([1]; human, in vivo, 48 weeks) | AE leading to discontinuation: Hypoaesthesia, n subjects ([1]; human, in vivo, 48 weeks) | AE leading to discontinuation: Musculoskeletal and connective tissue disorders, n subjects ([1]; human, in vivo, 48 weeks) | AE leading to discontinuation: Musculoskeletal discomfort, n subjects ([1]; human, in vivo, 48 weeks) | AE leading to discontinuation: Nausea, n subjects ([1]; human, in vivo, 48 weeks) | AE leading to discontinuation: Photophobia, n subjects ([1]; human, in vivo, 48 weeks) | AE leading to discontinuation: Rash, n subjects ([1]; human, in vivo, 48 weeks) | AE leading to discontinuation: Tachyphrenia, n subjects ([1]; human, in vivo, 48 weeks) | AE leading to discontinuation: Tinnitus, n subjects ([1]; human, in vivo, 48 weeks) | Any Grade 4 AE, n subjects ([1]; human, in vivo, 48 weeks) | Any SAE, n subjects ([1]; human, in vivo, 48 weeks) | Grade 3 or 4 AE: Dermatitis allergic, n subjects ([1]; human, in vivo, 48 weeks) | Grade 3 or 4 AE: Skin and subcutaneous tissue disorders, n subjects ([1]; human, in vivo, 48 weeks) | Grade 3 or 4 AE: Tinnitus, n subjects ([1]; human, in vivo, 48 weeks) | SAE: Depression, n subjects ([1]; human, in vivo, 48 weeks) | SAE: Psychiatric disorders, n subjects ([1]; human, in vivo, 48 weeks)
15%: Subjects who experienced a Grade ≥3 AE ([1]; human, in vivo, 48 weeks)
6: AE Abnormal dreams, n subjects ([1]; human, in vivo, 48 weeks) | AE Nausea, n subjects ([1]; human, in vivo, 48 weeks) | Any AE leading to discontinuation of study drug, n subjects ([1]; human, in vivo, 48 weeks)

Source: US20180110754A1, “CENICRIVIROC FOR THE TREATMENT OF FIBROSIS” (Tobira Therapeutics, Inc., priority 2015, published 2018)
